Measurements taken from patent US9821008B2, “Inhibitors of ERCC1-XPF and methods of using the same” (The University of Toledo, priority 2013, dated 2017).
Read-outs that look alike come from different tables or passages of the source. Each block holds one compound with its values, some of them ahead of it.

Assays:
ERCC1-XPF endonuclease = molecular target: T1, ERCC1-XPF endonuclease (Homo sapiens, UniProt P07992+Q92889); assay: fluorescence based DNA incision assay with purified ERCC1-XPF; format: biochemical; details: purified enzyme, forked fluorescent DNA substrate
T1 sequence (Q92889 1-916): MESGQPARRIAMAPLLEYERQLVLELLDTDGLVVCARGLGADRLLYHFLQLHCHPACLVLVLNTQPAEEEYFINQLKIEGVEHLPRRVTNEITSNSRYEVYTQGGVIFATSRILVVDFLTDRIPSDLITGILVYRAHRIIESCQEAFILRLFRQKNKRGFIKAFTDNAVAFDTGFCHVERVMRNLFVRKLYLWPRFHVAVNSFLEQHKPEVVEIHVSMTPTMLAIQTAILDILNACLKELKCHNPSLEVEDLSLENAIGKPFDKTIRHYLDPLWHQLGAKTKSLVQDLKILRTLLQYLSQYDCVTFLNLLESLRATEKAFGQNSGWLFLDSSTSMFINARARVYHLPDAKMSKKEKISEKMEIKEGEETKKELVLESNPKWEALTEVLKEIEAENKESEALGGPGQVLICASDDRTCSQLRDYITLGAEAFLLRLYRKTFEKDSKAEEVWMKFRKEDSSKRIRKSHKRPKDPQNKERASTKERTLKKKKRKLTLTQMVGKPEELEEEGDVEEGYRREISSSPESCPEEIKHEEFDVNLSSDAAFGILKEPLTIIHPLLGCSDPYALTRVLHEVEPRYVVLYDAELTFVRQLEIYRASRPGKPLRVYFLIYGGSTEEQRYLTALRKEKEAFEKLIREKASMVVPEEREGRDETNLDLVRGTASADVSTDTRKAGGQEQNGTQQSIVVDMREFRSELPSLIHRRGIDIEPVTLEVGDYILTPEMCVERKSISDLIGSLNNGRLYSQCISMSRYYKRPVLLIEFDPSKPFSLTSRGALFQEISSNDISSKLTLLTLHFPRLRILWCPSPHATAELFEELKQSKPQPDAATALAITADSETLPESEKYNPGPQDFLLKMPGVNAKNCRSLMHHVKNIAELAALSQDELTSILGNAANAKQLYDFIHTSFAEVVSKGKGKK
T1 sequence (P07992 1-297): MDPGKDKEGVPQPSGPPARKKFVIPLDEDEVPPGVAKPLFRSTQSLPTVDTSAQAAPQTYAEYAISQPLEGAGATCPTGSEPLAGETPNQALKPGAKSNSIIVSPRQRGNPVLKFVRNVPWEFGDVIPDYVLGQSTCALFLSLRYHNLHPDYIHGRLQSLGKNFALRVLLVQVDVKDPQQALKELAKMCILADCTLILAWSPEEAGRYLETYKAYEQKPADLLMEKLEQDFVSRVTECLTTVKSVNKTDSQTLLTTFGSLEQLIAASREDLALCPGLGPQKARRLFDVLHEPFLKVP
Description: Described herein is a robust fluorescence based incision assay which was used to initially screen a diverse drug library (˜2,000 compounds) in order to identify inhibitors of the ERCC1-XPF endonuclease. From the initial screen, five (5) small molecule Hits were identified that inhibited ERCC1-XPF nuclease activity with micromolar to nanomolar potency.
(§1) For at least one reason, the lead compound was selected based on having nanomolar potency in the fluorescence assay (FIG. 2) and having the best response in enhancing cisplatin efficacy in cell culture models. Titration of lead compound in the ERCC1-XPF fluorescence assay yields an IC50 value of 400-500 nM (FIG. 2).
(§2) The synthesized compounds were tested in the in vitro fluorescence incision assay and radiolabeled DNA incision assay for potency and selectivity against ERCC1-XPF. These assays are based on forked synthetic DNA substrates and purified enzyme. The fluorescent DNA substrate is designed such that a fluorophore (Fl) is incorporated into the top DNA strand while a quencher (Q) molecule is incorporated in the bottom DNA strand and in close proximity to the Fl (FIG. 5).
When the DNA substrate is annealed, the Q quenches the fluorescent signal and results in low background fluorescence. […]

cell culture = assay: enhancement of cisplatin efficacy in cell culture; format: cell-based
Description: The Tosyl adduct is necessary for compound 1's ability to enhance cisplatin activity and inhibit DNA repair. Without this functionality, no activity in cell culture was observed. Derivatives synthesized in Pathways B and C, take further advantage of the Tosyl functional group, including the sulfonate linkage itself. Pathway B focuses on varying the substitution on the toluene ring. By substitution of the methyl substituent with hydrogen (3a), as well as a halogen (3c) or a propyl group (3d), steric tolerance is adjusted at this position. Alternatively, addition of a heteroatom within the aromatic ring, whether it is an oxygen (3e) or a nitrogen (3f), has little effect upon the steric environment but alters the electronic nature of this key substituent. Removal of the aromatic ring and replacement with an alkene (3b) encompasses both the steric and electronic features at this position. Pathway C exemplifies compounds with differing linkers to the tosyl moiety, namely substitution of the sulfonate as a thioether (4a), sulfoxide (4b), ester (4c), and ether (4d) or amine (4e).

[1] = test system: 2008/C13*5.25 (resistant) ovarian cancer cell line; assay: colony survival after ERCC1-XPF siRNA and cisplatin treatment; format: cell-based; details: control siRNA; 2008/C13*5.25 vs 2008
Description: FIG. 1: Colony survival in matched ovarian cancer cell lines. 2008 (sensitive, squares) and 2008/C13*5.25 (resistant, circles) ovarian cancer cell lines were transfected with control or ERCC1-XPF siRNA and subjected to cisplatin treatment. IC50 values are indicated.
In order to assess whether ERCC1-XPF influences cisplatin resistance in ovarian cancer cell lines, a matched set of parental sensitive (2008s) and daughter resistant cell lines (2008/C13*5.25) were obtained. These are well characterized cell lines for assessing cisplatin resistance and effects in ovarian cancer.
Following greater than 90% ERCC1-XPF knockdown (data not shown), the resistant daughter cell line has a nearly 5-fold change in cisplatin sensitivity, making the cells as sensitive as the parental sensitive cell line (compare open circles with filled squares).

ERCC1-XPF = molecular target: T2, ERCC1-XPF (Homo sapiens, UniProt P07992+Q92889); assay: radiolabeled DNA incision assay (radiometric inhibition assay); format: biochemical; details: read-out: 50% inhibition in radiometric inhibition assay
T2 sequence (Q92889 1-916): T1 sequence (Q92889 1-916)
T2 sequence (P07992 1-297): T1 sequence (P07992 1-297)
Description: as §1, §2

[2] = test system: cisplatin resistant ovarian cancer cell line (2008/C13*5.25); assay: colony survival with cisplatin IC50 concentration, lead compound titrated (Combination Factor); format: cell-based; details: 2008/C13*5.25, colony survival
Description: (§3) Cells were treated with the cisplatin IC50 concentration while the lead compound was titrated into the experiment, and colony survival assessed. The Combination Factor is the concentration of lead compound that is required to enhance cisplatin IC50 values by 2-fold.

[3] = test system: lung cancer cell line (H460); assay: as above; format: cell-based
Description: as §3

- IC50 (ERCC1-XPF endonuclease; read-out: 50% fluorescent inhibition in the fluorescence incision assay): 3.2 to 3.6 µM
Compound: COc1cc(S(=O)(=O)O)cc2cc(S(=O)(=O)O)cc(N)c12 [boxed portion of the molecule, reference compound]
- effect in cell culture (cell culture; data not shown): no effect

Compound: N.N.[Cl][Pt][Cl] [cisplatin]
- fold resistance to cisplatin, comparing IC50 values to the parental sensitive cell line [1]: ~4 fold

- IC50 (ERCC1-XPF endonuclease; read-out: IC50 (50% inhibition) in ERCC1-XPF fluorescence assay): 0.4 to 0.5 µM
- IC50 (ERCC1-XPF): 0.4 to 0.5 µM
- IC50 (cell culture; with cisplatin, cell line not stated, read-out: enhancing cisplatin efficacy in cell culture (IC50)): 4 µM
Compound: Cc1ccc(S(=O)(=O)Oc2cc(S(=O)(=O)O)cc3cc(S(=O)(=O)O)cc(N)c23)cc1 [compound 1]
- Combination Factor: concentration of lead compound required to enhance cisplatin IC50 values by 2-fold [2]: low micromolar range
- Combination Factor: concentration of lead compound required to enhance cisplatin IC50 values by 2-fold [3]: 7 to 8 µM
